Key:
MCF7 [1] = test: Cytotoxicity against human MCF7 cells after 48 hrs by MTT assay; format: functional, cell-based; conditions: MCF7, 48 h
A549 = test: Cytotoxicity against human A549 cells after 48 hrs by MTT assay; format: functional, cell-based; conditions: A549, 48 h
[2] = Cytotoxicity against human DU145 cells after 48 hrs by MTT assay; format: functional, cell-based; conditions: DU-145, 48 h
HEK293 = test: Cytotoxicity against HEK293 cells after 48 hrs by MTT assay; format: cell-based; conditions: Homo sapiens, HEK293, 48 h
HeLa = test: Cytotoxicity against human HeLa cells after 48 hrs by MTT assay; format: functional, cell-based
MCF7 [3] = test: Induction of cell cycle arrest in human MCF7 cells assessed as accumulation at sub G1 phase at 5 uM after 48 hrs by propidium iodide staining based flow cytometric analysis (reference value: 2.58 %); format: functional
MCF7 [4] = test: Induction of cell cycle arrest in human MCF7 cells assessed as accumulation at sub G1 phase at 2.5 uM after 48 hrs by propidium iodide staining based flow cytometric analysis (reference value: 2.58 %); format: functional
MCF7 [5] = test: Induction of cell cycle arrest in human MCF7 cells assessed as accumulation at G0/G1 phase at 2.5 uM after 48 hrs by propidium iodide staining based flow cytometric analysis (reference value: 62.95 %); format: functional
MCF7 [6] = test: Induction of cell cycle arrest in human MCF7 cells assessed as accumulation at G2/M phase at 5 uM after 48 hrs by propidium iodide staining based flow cytometric analysis (reference value: 28.45 %); format: functional
MCF7 [7] = test: Induction of cell cycle arrest in human MCF7 cells assessed as accumulation at S phase at 5 uM after 48 hrs by propidium iodide staining based flow cytometric analysis (reference value: 5.04 %); format: functional
MCF7 [8] = test: Induction of cell cycle arrest in human MCF7 cells assessed as accumulation at S phase at 2.5 uM after 48 hrs by propidium iodide staining based flow cytometric analysis (reference value: 5.04 %); format: functional
MCF7 [9] = test: Induction of cell cycle arrest in human MCF7 cells assessed as accumulation at G2/M phase at 2.5 uM after 48 hrs by propidium iodide staining based flow cytometric analysis (reference value: 28.45 %); format: functional
MCF7 [10] = test: Induction of cell cycle arrest in human MCF7 cells assessed as accumulation at G0/G1 phase at 5 uM after 48 hrs by propidium iodide staining based flow cytometric analysis (reference value: 62.95 %); format: functional

Row | SMILES | IC50 (MCF7 [1]) [µM] | IC50 (A549) [µM] | IC50 [2] [µM] | IC50 (HEK293) [µM] | IC50 (HeLa) [µM] | Activity (MCF7 [3]) [%] | Activity (MCF7 [4]) [%] | Activity (MCF7 [5]) [%] | Activity (MCF7 [6]) [%] | Activity (MCF7 [7]) [%] | Activity (MCF7 [8]) [%] | Activity (MCF7 [9]) [%] | Activity (MCF7 [10]) [%]
1 | C#CCNC1=CC(=O)c2ccccc2C1=O | 24.1 | 47.3 | 39.8 | 77.6 | 30.9 | – | – | – | – | – | – | – | –
2 | Cc1ccc(S(=O)(=O)/N=C(/CCNC2=CC(=O)c3ccccc3C2=O)Nc2cc(F)c(F)c(F)c2)cc1 | 6.61 | 10.2 | 12.6 | 82.6 | 8.58 | – | – | – | – | – | – | – | –
3 | Cc1ccc(S(=O)(=O)/N=C(/CCNC2=CC(=O)c3ccccc3C2=O)Nc2ccc(F)c(F)c2)cc1 | 9.42 | 16.7 | 12.9 | 55.2 | 8.79 | – | – | – | – | – | – | – | –
4 | Cc1ccc(S(=O)(=O)/N=C(/CCNC2=CC(=O)c3ccccc3C2=O)Nc2ccccc2[N+](=O)[O-])cc1 | 3.09 | 5.01 | 7.59 | 69.6 | 3.31 | 2.6 | 2.5 | 63.91 | 23.6 | 3.09 | 3.11 | 27.47 | 68.18
5 | Cc1ccc(S(=O)(=O)/N=C(/CCNC2=CC(=O)c3ccccc3C2=O)Nc2ccccc2I)cc1 | 15.5 | 24.7 | 11.7 | 49.4 | 19.1 | – | – | – | – | – | – | – | –
6 | COc1ccc(N/C(CCNC2=CC(=O)C(C)=C(C)C2=O)=N\S(=O)(=O)c2ccc(C)cc2)cc1OC | 8.71 | 15.5 | 14 | 79.4 | 10.5 | – | – | – | – | – | – | – | –
7 | Cc1ccc(S(=O)(=O)/N=C(\N)CCNC2=CC(=O)c3ccccc3C2=O)cc1 | 18.6 | 26.6 | 30.9 | 63.1 | 24.6 | – | – | – | – | – | – | – | –
8 | Cc1ccc(S(=O)(=O)/N=C(/CCNC2=CC(=O)c3ccccc3C2=O)Nc2ccc(F)cc2)cc1 | 4.26 | 9.33 | 12.2 | 55.1 | 5.89 | – | – | – | – | – | – | – | –
9 | COc1ccc(N/C(CCNC2=CC(=O)c3ccccc3C2=O)=N\S(=O)(=O)c2ccc(C)cc2)cc1 | 6.03 | 25.5 | 12 | 35.1 | 7.59 | – | – | – | – | – | – | – | –
10 | Cc1ccc(S(=O)(=O)/N=C(/CCNC2=CC(=O)c3ccccc3C2=O)Nc2cccc(C(F)(F)F)c2)cc1 | 89.1 | 78.5 | 84.1 | 91.5 | 77.6 | – | – | – | – | – | – | – | –
11 | Cc1ccc(S(=O)(=O)/N=C(/CCNC2=CC(=O)c3ccccc3C2=O)Nc2ccc(Cl)cc2Cl)cc1 | 17 | 32.9 | 18.6 | 41.9 | 20.5 | – | – | – | – | – | – | – | –
12 | COc1ccc(N/C(CCNC2=C(Br)C(=O)c3ccccc3C2=O)=N\S(=O)(=O)c2ccc(C)cc2)cc1OC | 6.61 | 17.5 | 29.6 | 35.3 | 5.37 | – | – | – | – | – | – | – | –
13 | Cc1ccc(S(=O)(=O)/N=C(/CCNC2=CC(=O)c3ccccc3C2=O)NCCc2c[nH]c3ccccc23)cc1 | 7.76 | 17 | 28.4 | 42.5 | 9.33 | – | – | – | – | – | – | – | –
14 | Cc1ccc(S(=O)(=O)/N=C(/CCNC2=CC(=O)c3ccccc3C2=O)NC2CCCCC2)cc1 | 7.58 | 14.7 | 16.6 | 50.1 | 9.77 | – | – | – | – | – | – | – | –
15 | COc1ccc(N/C(CCNC2=CC(=O)c3ccccc3C2=O)=N\S(=O)(=O)c2ccc(C(C)(C)C)cc2)cc1OC | 8.71 | 16.2 | 14.5 | 62.3 | 11.5 | – | – | – | – | – | – | – | –
16 | COc1cc(N/C(CCNC2=CC(=O)c3ccccc3C2=O)=N\S(=O)(=O)c2ccc(C)cc2)cc(OC)c1OC | 3.05 | 7.94 | 9.33 | 75.8 | 3.39 | 3.01 | 1.86 | 64.17 | 5.23 | 5.19 | 4.14 | 27.51 | 84.55
17 | Cc1ccc(S(=O)(=O)/N=C(/CCNC2=CC(=O)c3ccccc3C2=O)Nc2ccc(Cl)cc2)cc1 | 7.08 | 29.9 | 32.4 | 65.4 | 13.4 | – | – | – | – | – | – | – | –
18 | Cc1ccc(S(=O)(=O)/N=C(/CCNC2=CC(=O)c3ccccc3C2=O)NCc2ccccc2)cc1 | 3.63 | 7.41 | 9.12 | 80.2 | 3.98 | – | – | – | – | – | – | – | –
19 | Cc1ccc(S(=O)(=O)/N=C(/CCNC2=CC(=O)c3ccccc3C2=O)Nc2cccc(C)c2)cc1 | 8.12 | 18.7 | 10.2 | 56.2 | 9.06 | – | – | – | – | – | – | – | –
20 | COc1ccc(N/C(CCNC2=CC(=O)c3ccccc3C2=O)=N\S(=O)(=O)c2ccc(C)cc2)c(OC)c1 | 30.2 | 126 | 67.2 | 83 | 67.6 | – | – | – | – | – | – | – | –
21 | Cc1ccc(S(=O)(=O)/N=C(/CCNC2=CC(=O)c3ccccc3C2=O)NC(C)C)cc1 | 16.5 | 44.3 | 28.5 | 71.6 | 30.2 | – | – | – | – | – | – | – | –
22 | COc1ccc(N/C(CCNC2=CC(=O)c3ccccc3C2=O)=N\S(=O)(=O)c2ccc(C)cc2)cc1OC | 12.3 | 20.4 | 17.8 | 60.6 | 14.5 | – | – | – | – | – | – | – | –
23 | COc1cccc2c1C(=O)c1c(O)c3c(c(O)c1C2=O)C[C@@](O)(C(=O)CO)C[C@@H]3O[C@H]1C[C@H](N)[C@H](O)[C@H](C)O1 [DOXORUBICIN] | – | 2.34 | 1.08 | – | 1.59 | – | – | – | – | – | – | – | –
